From ChEMBL document CHEMBL1201862, “PubChem BioAssay data set” (2004)
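All cell lines were grown in 96-well plates and treated with compound for 48 hours. GI50 marks 50% less growth.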 The source made the active and inactive calls. No stated cut-off is given here; in the data, active = GI50 up to about 1.1 µM and inactive = higher.

Tests used:
Assay in all cases: NCI anticancer screen, dose series, 48 h
MDA-MB-435 = test system: MDA-MB-435
SF-268 = test system: SF-268
HCT-116 = test system: HCT-116
SK-MEL-5 = test system: SK-MEL-5
PC-3 = test system: PC-3
SR = test system: SR
HCT-15 = test system: HCT-15
Hs-578T = test system: Hs-578T
HOP-62 = test system: HOP-62
LOX IMVI = test system: LOX IMVI
SW-620 = test system: SW-620
SK-OV-3 = test system: SK-OV-3
OVCAR-5 = test system: OVCAR-5
OVCAR-3 = test system: OVCAR-3
COLO 205 = test system: COLO 205
NCI-H23 = test system: NCI-H23
Malme-3M = test system: Malme-3M
NCI-H460 = test system: NCI-H460
CCRF-CEM = test system: CCRF-CEM
HCC 2998 = test system: HCC 2998

Compound | GI50 (MDA-MB-435) | GI50 (SF-268) | GI50 (HCT-116) | GI50 (SK-MEL-5) | GI50 (PC-3) | GI50 (SR) | GI50 (HCT-15) [µM] | GI50 (Hs-578T) | GI50 (HOP-62) | GI50 (LOX IMVI) | GI50 (SW-620) | GI50 (SK-OV-3) | GI50 (OVCAR-5) | GI50 (OVCAR-3) | GI50 (COLO 205) | GI50 (NCI-H23) | GI50 (Malme-3M) | GI50 (NCI-H460) | GI50 (CCRF-CEM) | GI50 (HCC 2998)
CC(NC(=O)C(Cc1ccc(OC(=O)c2ccccc2)cc1)NC(=O)OC(C)(C)C)C(=O)NCC(=O)NC(Cc1ccccc1)C(=O)NN (centres undefined) | 39 µM (inactive) | 54.6 µM (inactive) | 43.1 µM (inactive) | 34.7 µM (inactive) | 24.2 µM (inactive) | 13.6 µM (inactive) | > 100 | 32.7 µM (inactive) | 83 µM (inactive) | 18.1 µM (inactive) | 29.3 µM (inactive) | > 100 µM (inactive) | > 100 µM (inactive) | 57.9 µM (inactive) | 23.8 µM (inactive) | 74.5 µM (inactive) | 64.9 µM (inactive) | 49.2 µM (inactive) |  | 
O=[N+]([O-])c1ccc(/N=N/c2c(O)ccc3cc(S(=O)(=O)O)cc(S(=O)(=O)O)c23)cc1 | > 100 µM (inactive) | > 100 µM (inactive) | > 100 µM (inactive) | > 100 µM (inactive) | > 100 µM (inactive) | > 100 µM (inactive) | > 100 | > 100 µM (inactive) | > 100 µM (inactive) | > 100 µM (inactive) | > 100 µM (inactive) | > 100 µM (inactive) | > 100 µM (inactive) | > 100 µM (inactive) | > 100 µM (inactive) | > 100 µM (inactive) | > 100 µM (inactive) |  | > 100 µM (inactive) | 
Clc1ccc(Cl)c(Nc2ccnc(SCc3ccccc3)n2)c1 | > 100 µM (inactive) | > 100 µM (inactive) | > 100 µM (inactive) | > 100 µM (inactive) | > 100 µM (inactive) | > 100 µM (inactive) | > 100 | > 100 µM (inactive) | > 100 µM (inactive) | 46.6 µM (inactive) | > 100 µM (inactive) | > 100 µM (inactive) | > 100 µM (inactive) | > 100 µM (inactive) | > 100 µM (inactive) | > 100 µM (inactive) | > 100 µM (inactive) | 54.8 µM (inactive) | > 100 µM (inactive) | 
COc1ccc(-c2nc(N)c3ncn(C4OC(CO)C(O)C4O)c3n2)cc1 (centres undefined) | > 100 µM (inactive) | > 100 µM (inactive) | > 100 µM (inactive) | > 100 µM (inactive) | > 100 µM (inactive) | > 100 µM (inactive) | > 100 | > 100 µM (inactive) | > 100 µM (inactive) | > 100 µM (inactive) | > 100 µM (inactive) | > 100 µM (inactive) | > 100 µM (inactive) | > 100 µM (inactive) | > 100 µM (inactive) | > 100 µM (inactive) | > 100 µM (inactive) | > 100 µM (inactive) | > 100 µM (inactive) | 
NCCCNc1ccc2c3c(nn2CCNCCO)-c2c(O)ccc(O)c2C(=O)c13 | 9.71 µM (inactive) | 1.35 µM (inactive) |  | 0.925 µM (active) | 2.84 µM (inactive) | 0.253 µM (active) | 5.01 | 0.787 µM (active) | 0.362 µM (active) | 0.927 µM (active) | 1.15 µM (inactive) | 1.28 µM (inactive) | 4.28 µM (inactive) | 5.13 µM (inactive) | 1.44 µM (inactive) | 1.25 µM (inactive) | 1.51 µM (inactive) |  |  | 
Oc1cc(CF)nc(S)n1 | > 100 µM (inactive) | > 100 µM (inactive) | > 100 µM (inactive) | > 100 µM (inactive) | > 100 µM (inactive) | > 100 µM (inactive) | > 100 | > 100 µM (inactive) | > 100 µM (inactive) | > 100 µM (inactive) | > 100 µM (inactive) |  | > 100 µM (inactive) | > 100 µM (inactive) |  | > 100 µM (inactive) | > 100 µM (inactive) | > 100 µM (inactive) | > 100 µM (inactive) | > 100 µM (inactive)
Cc1cc(=O)[nH]c(-n2[nH]c(C)c(CCO)c2=O)n1 | > 100 µM (inactive) | > 100 µM (inactive) | > 100 µM (inactive) | > 100 µM (inactive) | > 100 µM (inactive) |  | > 100 | > 100 µM (inactive) | > 100 µM (inactive) | > 100 µM (inactive) | > 100 µM (inactive) | > 100 µM (inactive) | > 100 µM (inactive) | > 100 µM (inactive) | > 100 µM (inactive) | > 100 µM (inactive) | > 100 µM (inactive) | > 100 µM (inactive) | > 100 µM (inactive) | > 100 µM (inactive)
Cc1cccc(Nc2cn(CCOc3ccccc3)c(=O)[nH]c2=O)c1 | 29.5 µM (inactive) | 30 µM (inactive) | 27.5 µM (inactive) | 25.8 µM (inactive) | 23.4 µM (inactive) | > 100 µM (inactive) | 49.9 | 6.41 µM (inactive) | 29.8 µM (inactive) | 11.9 µM (inactive) | > 100 µM (inactive) |  | 19.4 µM (inactive) | 18.7 µM (inactive) | 18.8 µM (inactive) | 31 µM (inactive) |  | 32.7 µM (inactive) | 52.6 µM (inactive) | 24.8 µM (inactive)
O=C(O)c1cc(-c2ccc(-c3ccccc3)cc2)nc2cc3ccccc3cc12 | 72.9 µM (inactive) | 35.2 µM (inactive) | 31.3 µM (inactive) | 26.4 µM (inactive) | 17.5 µM (inactive) | 5.43 µM (inactive) | 8.15 | 32.3 µM (inactive) | 30.3 µM (inactive) | 66.7 µM (inactive) | 40.4 µM (inactive) | > 100 µM (inactive) | > 100 µM (inactive) | 47.9 µM (inactive) | 54.7 µM (inactive) | 36.8 µM (inactive) | 84.5 µM (inactive) | 6.35 µM (inactive) | 5.21 µM (inactive) | 
CCOC(=O)N1CCN(c2c(N)nc(C)nc2O)CC1 | > 100 µM (inactive) | > 100 µM (inactive) | > 100 µM (inactive) |  | > 100 µM (inactive) | > 100 µM (inactive) | > 100 | > 100 µM (inactive) | > 100 µM (inactive) | > 100 µM (inactive) | > 100 µM (inactive) |  | > 100 µM (inactive) | > 100 µM (inactive) | > 100 µM (inactive) | > 100 µM (inactive) | > 100 µM (inactive) | > 100 µM (inactive) | > 100 µM (inactive) | > 100 µM (inactive)
Oc1c(Br)cc(Br)cc1CN(Cc1cc(Br)cc(Br)c1O)C1CCCCC1 | 31.3 µM (inactive) | 22 µM (inactive) | 33.4 µM (inactive) | 16.9 µM (inactive) | 21.1 µM (inactive) | 32.4 µM (inactive) | 31.9 | 17.2 µM (inactive) | 24.4 µM (inactive) | 31.9 µM (inactive) | 29.7 µM (inactive) | 44.6 µM (inactive) | 37.6 µM (inactive) | 15.1 µM (inactive) | 14.7 µM (inactive) | 23.2 µM (inactive) | 21.2 µM (inactive) |  |  | 
